The values that follow are results of earlier work, collected in patent US20020146463A1, “Health promoting compositions” (priority 2000, published 2002).

For data set [1] the following is noted: 500 patients with skin conditions, 180-300 mg beta carotene/day for 10 years.
For data set [2] the following is noted: high versus low levels of folic acid in diet.
The conditions of data set [3]: three recent trials.

As for `CC1=C(/C=C/C(C)=C/C=C/C(C)=C/C=C/C=C(C)/C=C/C=C(C)/C=C/C2=C(C)CCCC2(C)C)C(C)(C)CCC1` [beta carotene], the adverse effects entry in data set [1] is “without report of adverse effects”. As for `Nc1nc2ncc(CNc3ccc(C(=O)N[C@@H](CCC(=O)O)C(=O)O)cc3)nc2c(=O)[nH]1` [folic acid], the “less likely to suffer a fatal heart attack” value in data set [2] is 69%.

With vitamin E, the “reduction of the risk of heart attacks” value in data set [3] is given as “more than half”.
